Test results as given in patent publication US10473666B2, “Dye compounds” (SFC CO., LTD., priority 2015, dated 2019).

Tests used:
[1] = Absorption spectra, emission spectra, molar extinction coefficients and quantum yields of the dye compounds; format: physicochemical
HeLa A431 cells = assay: Photostability: fluorescence intensity over time in stained HeLa A431 cells; format: cell-based; conditions: HeLa A431 cells stained with 1.0 μM dye
Description: The fluorescence intensities of three areas A, B, and C of HeLa A431 cells stained with the compound of Formula 110 (1.0 μM) were measured at 2-sec intervals for 3500 sec.
The fluorescence intensities of four areas A, B, C, and D of HeLa A431 cells stained with the compound of Formula 98 (1.0 μM) were measured at 2-sec intervals for 3500 sec.
The fluorescence intensities of two areas A and B of HeLa A431 cells stained with Cy3B (1.0 μM) were measured at intervals of 2 s for 2000 s.

[2] = Absorption spectra, emission spectra, molar extinction coefficients and quantum yields of the dye compounds; format: physicochemical; conditions: Table 1; solvent DMSO
Description: Absorption spectra (λabs), emission spectra (λem), molar extinction coefficients (ε), and quantum yields of the compounds of Formulae 1-7 were measured and the results are shown in Table 1.
Absorption spectra (λabs), emission spectra (λem), molar extinction coefficients, and quantum yields of the compounds of Formulae 44-53 were measured and the results are shown in Table 4.
The products of the two factors (molar extinction coefficient×fluorescence quantum yield) for the inventive dye compounds were much greater than that for the comparative compound.

[3] = Photophysical properties incl. two-photon cross-sections (femtosecond fluorescence measurement technique); format: physicochemical; conditions: for eΦ: Molar extinction coefficient × fluorescence quantum yield: in M-1cm-1
Description: All measurements were performed in DMSO, ethanol, and PBS buffer. Two-photon cross-sections (δ) were measured using a femtosecond (fs) fluorescence measurement technique.

Row | Quantum yield ([1]; Table 6, solvent DMSO) | ε (molar extinction coefficient) ([1]; Table 6, solvent DMSO) | λabs ([1]; Table 6, solvent DMSO) [nm] | λem ([1]; Table 6, solvent DMSO) [nm] | Quantum yield ([1]; Table 6, solvent EtOH) | ε (molar extinction coefficient) ([1]; Table 6, solvent EtOH) | λabs ([1]; Table 6, solvent EtOH) [nm] | λem ([1]; Table 6, solvent EtOH) [nm] | Quantum yield ([1]; Table 6, solvent PBS) | ε (molar extinction coefficient) ([1]; Table 6, solvent PBS) | λabs ([1]; Table 6, solvent PBS) [nm] | λem ([1]; Table 6, solvent PBS) [nm] | Compound | other results
1 |  |  |  |  |  |  |  |  |  |  |  |  | CC[N+]1=C(/C=C/C=C2/N(CCCCCC(=O)O)c3ccccc3C2(C)C)C(C)(C)c2ccccc21 [Comparative, reference compound] | Q.Y. (quantum yield) ([1]; Table 1, solvent not given): 0.04; ε (molar extinction coefficient) ([1]; Table 1, solvent not given): 150,000 M^−1cm^−1; λabs ([1]; Table 1, solvent not given): 548 nm; λem ([1]; Table 1, solvent not given): 562 nm; Quantum yield ([1]; Table 4, solvent not given): 0.04; ε (molar extinction coefficient) ([1]; Table 4, solvent not given): 150,000 M^−1cm^−1; λabs ([1]; Table 4, solvent not given): 548 nm; λem ([1]; Table 4, solvent not given): 562 nm; Quantum yield ([1]; Table 6, solvent not given): 0.04; ε (molar extinction coefficient) ([1]; Table 6, solvent not given): 150,000 M^−1cm^−1; λabs ([1]; Table 6, solvent not given): 548 nm; λem ([1]; Table 6, solvent not given): 562 nm
2 |  |  |  |  |  |  |  |  |  |  |  |  | CC1(C)C2=C3C=C4C5=[N+](CCC4OC3CCN2c2ccccc21)c1ccccc1C5(C)C (centres unmarked) [Cy3B, reference compound] | photostability (HeLa A431 cells): poor photostability; change of fluorescence intensity over time (HeLa A431 cells; measured at intervals of 2 s for 2000 s): greatly reduced for 1500 s
3 |  |  |  |  |  |  |  |  |  |  |  |  | CC1(CCCCCC(=O)O)C2=[N+](CCC3Oc4c(cc5c6c4CCCN6CCC5)C=C23)c2ccccc21 (centres unmarked) [Formula 2] | ε (molar extinction coefficient) ([1]; Table 1, solvent DMSO): 71,500 M^−1cm^−1; λem ([1]; Table 1, solvent DMSO): 623 nm; Q.Y. (quantum yield) [2]: 0.94; λabs [2]: 597 nm
4 |  |  |  |  |  |  |  |  |  |  |  |  | CN(CCCCCC(=O)O)c1ccc2c(c1)OC1CC[N+]3=C(C1=C2)C(C)(C)c1cc(S(=O)(=O)CC(S(=O)(=O)[O-])S(=O)(=O)O)ccc13 (centres unmarked) [Formula 4] | ε (molar extinction coefficient) ([1]; Table 1, solvent DMSO): 76,000 M^−1cm^−1; λem ([1]; Table 1, solvent DMSO): 614 nm; Q.Y. (quantum yield) [2]: 0.81; λabs [2]: 584 nm
5 |  |  |  |  |  |  |  |  |  |  |  |  | CC1(C)C2=[N+](CCC3Oc4cc5c(cc4C=C23)C(CS(=O)(=O)O)=CC(C)(C)N5CCCCCC(=O)O)c2ccc(S(=O)(=O)[O-])cc21 (centres unmarked) [Formula 5] | ε (molar extinction coefficient) ([1]; Table 1, solvent DMSO): 65,000 M^−1cm^−1; λem ([1]; Table 1, solvent DMSO): 659 nm; Q.Y. (quantum yield) [2]: 0.56; λabs [2]: 617 nm
6 |  |  |  |  |  |  |  |  |  |  |  |  | CC1(C)CCN(CCCCCC(=O)O)c2ccc3c(c21)OC1CC[N+]2=C(C1=C3)C(C)(C)c1ccccc12 (centres unmarked) [Formula 6] | ε (molar extinction coefficient) ([1]; Table 1, solvent DMSO): 12,800 M^−1cm^−1; λem ([1]; Table 1, solvent DMSO): 612 nm; Q.Y. (quantum yield) [2]: 0.72; λabs [2]: 579 nm
7 |  |  |  |  |  |  |  |  |  |  |  |  | CC1(C)CCN(CCCCCC(=O)O)c2cc3c(cc21)C=C1C2=[N+](CCC1O3)c1ccccc1C2(C)C (centres unmarked) [Formula 7] | ε (molar extinction coefficient) ([1]; Table 1, solvent DMSO): 60,000 M^−1cm^−1; λem ([1]; Table 1, solvent DMSO): 615 nm; Q.Y. (quantum yield) [2]: 1.00; λabs [2]: 584 nm
8 |  |  |  |  |  |  |  |  |  |  |  |  | CC1(C)C2=C3C=C4C=C(c5nc6ccc(C(=O)O)cc6s5)C(=O)C=C4OC3CCN2c2ccccc21 (centres unmarked) [Formula 51] | Quantum yield ([1]; Table 4, solvent DMSO): 0.75; ε (molar extinction coefficient) ([1]; Table 4, solvent DMSO): 78,800 M^−1cm^−1; λabs ([1]; Table 4, solvent DMSO): 595 nm; λem ([1]; Table 4, solvent DMSO): 621 nm
9 |  |  |  |  |  |  |  |  |  |  |  |  | CC1(C)C2=C3C=C4C=CC(=O)C=C4OC3CCN2c2ccc(CC(=O)O)cc21 (centres unmarked) [Formula 52] | Quantum yield ([1]; Table 4, solvent PBS): 0.61; λabs ([1]; Table 4, solvent PBS): 541 nm; λem ([1]; Table 4, solvent PBS): 564 nm
10 |  |  |  |  |  |  |  |  |  |  |  |  | CC1(C)C2=C3C=C4C=C(C(=O)O)C(=O)C=C4OC3CCN2c2ccc(S(=O)(=O)O)cc21 (centres unmarked) [Formula 53] | Quantum yield ([1]; Table 4, solvent DMSO): 0.95; ε (molar extinction coefficient) ([1]; Table 4, solvent DMSO): 33,000 M^−1cm^−1; λabs ([1]; Table 4, solvent DMSO): 546 nm; λem ([1]; Table 4, solvent DMSO): 570 nm
11 | 0.65 | 21,000 M^−1cm^−1 | 467 | 563 | 0.52 | 22,000 M^−1cm^−1 | 474 | 558 | 0.42 | 30,000 M^−1cm^−1 | 463 | 558 | COc1ccc2c(c1)OC1CC[N+]3=C(C1=C2)C(C)(C)c1ccccc13 (centres unmarked) [Formula 99] | 
12 | 0.90 | 65,000 M^−1cm^−1 | 594 | 618 | 0.90 | 75,000 M^−1cm^−1 | 592 | 612 | 0.80 | 54,000 M^−1cm^−1 | 589 | 608 | CC1(C)C2=[N+](CCC3Oc4c(cc5c6c4CCCN6CCC5)C=C23)c2ccccc21 (centres unmarked) [Formula 100] | d: Peak two-photon cross-section ([3]; Buffer (PBS buffer)): 272 10^−50 cm^4s per photon (GM); dΦ: Two-photon action cross-section ([3]; Buffer (PBS buffer)): 177 GM; Φ: Fluorescence quantum yield ([3]; Buffer (PBS buffer)): 0.65; λ^(2)max^abs: Maximum wavelength in two-photon absorption spectrum ([3]; Buffer (PBS buffer)): 740 nm; λmax^fl: Maximum wavelength in single-photon emission spectrum ([3]; Buffer (PBS buffer)): 611 nm; eΦ: Molar extinction coefficient × fluorescence quantum yield ([3]; Buffer (PBS buffer)): 61750; Φ: Fluorescence quantum yield ([3]; DMSO): 0.90; λmax^fl: Maximum wavelength in single-photon emission spectrum ([3]; DMSO): 618 nm; dΦ: Two-photon action cross-section ([3]; EtOH): 114 GM; λ^(2)max^abs: Maximum wavelength in two-photon absorption spectrum ([3]; EtOH): 750 nm
13 | 0.70 | 54,000 M^−1cm^−1 | 584 | 630 | 0.87 | 66,000 M^−1cm^−1 | 585 | 623 | 0.61 | 49,000 M^−1cm^−1 | 578 | 619 | C1=C2c3sc4ccccc4[n+]3CCC2Oc2c1cc1c3c2CCCN3CCC1 (centres unmarked) [Formula 101] | d: Peak two-photon cross-section ([3]; Buffer (PBS buffer)): 89 10^−50 cm^4s per photon (GM); dΦ: Two-photon action cross-section ([3]; Buffer (PBS buffer)): 54 GM; Φ: Fluorescence quantum yield ([3]; Buffer (PBS buffer)): 0.61; λ^(2)max^abs: Maximum wavelength in two-photon absorption spectrum ([3]; Buffer (PBS buffer)): 740 nm; λmax^fl: Maximum wavelength in single-photon emission spectrum ([3]; Buffer (PBS buffer)): 619 nm; eΦ: Molar extinction coefficient × fluorescence quantum yield ([3]; Buffer (PBS buffer)): 29890; Φ: Fluorescence quantum yield ([3]; DMSO): 0.70; λmax^fl: Maximum wavelength in single-photon emission spectrum ([3]; DMSO): 630 nm; dΦ: Two-photon action cross-section ([3]; EtOH): 54 GM; λ^(2)max^abs: Maximum wavelength in two-photon absorption spectrum ([3]; EtOH): 720 nm
14 | 0.99 | 23,000 M^−1cm^−1 | 570 | 586 | 0.78 | 6,800 M^−1cm^−1 | 557 | 578 | 0.70 | 7,100 M^−1cm^−1 | 524 | 571 | Oc1ccc2c(c1)OC1CC[n+]3c(sc4ccccc43)C1=C2 (centres unmarked) [Formula 102] | d: Peak two-photon cross-section ([3]; Buffer (PBS buffer)): 60 10^−50 cm^4s per photon (GM); dΦ: Two-photon action cross-section ([3]; Buffer (PBS buffer)): 42 GM; Φ: Fluorescence quantum yield ([3]; Buffer (PBS buffer)): 0.70; λ^(2)max^abs: Maximum wavelength in two-photon absorption spectrum ([3]; Buffer (PBS buffer)): 910 nm; λmax^fl: Maximum wavelength in single-photon emission spectrum ([3]; Buffer (PBS buffer)): 571 nm; eΦ: Molar extinction coefficient × fluorescence quantum yield ([3]; Buffer (PBS buffer)): 4970; Φ: Fluorescence quantum yield ([3]; DMSO): 1.00; λmax^fl: Maximum wavelength in single-photon emission spectrum ([3]; DMSO): 586 nm; dΦ: Two-photon action cross-section ([3]; EtOH): 7.6 GM; λ^(2)max^abs: Maximum wavelength in two-photon absorption spectrum ([3]; EtOH): 750 nm
15 | 0.88 | 108,000 M^−1cm^−1 | 566 | 586 | 0.84 | 70,000 M^−1cm^−1 | 547 | 574 | 0.79 | 48,000 M^−1cm^−1 | 516 | 563 | CC1(C)C2=C3C=C4C=C(C=O)C(=O)C=C4OC3CCN2c2ccccc21 (centres unmarked) [Formula 103] | 
16 | 0.38 | 52,000 M^−1cm^−1 | 646 | 685 |  |  |  |  | 0.09 | 28,000 M^−1cm^−1 | 559 | 572 | C[n+]1c(/C=C/C2=CC3=CC4=C5N(CCC4OC3=CC2=O)c2ccccc2C5(C)C)sc2ccccc21 (centres unmarked) [Formula 104] | 
17 | 0.70 | 37,000 M^−1cm^−1 | 613 | 649 | 0.50 | 44,000 M^−1cm^−1 | 611 | 645 | 0.28 | 35,000 M^−1cm^−1 | 604 | 643 | CC1=CC(C)(C)N2CCCc3c4c(cc1c32)C=C1C2=[N+](CCC1O4)c1ccccc1C2(C)C (centres unmarked) [Formula 105] | 
18 | 0.72 | 55,000 M^−1cm^−1 | 620 | 660 | 0.59 | 70,000 M^−1cm^−1 | 620 | 657 | 0.21 | 29,000 M^−1cm^−1 | 616 | 652 | CC1=CC(C)(C)N(CCCCCC(=O)O)c2cc3c(cc21)C=C1C2=[N+](CCC1O3)c1ccc3ccccc3c1C2(C)C (centres unmarked) [Formula 106] | 
19 | 0.70 | 40,000 M^−1cm^−1 | 629 | 664 | 0.52 | 50,000 M^−1cm^−1 | 628 | 659 | 0.29 | 37,000 M^−1cm^−1 | 624 | 655 | CC1=CC(C)(C)N2CCCc3c4c(cc1c32)C=C1C2=[N+](CCC1O4)c1ccc3ccccc3c1C2(C)C (centres unmarked) [Formula 107] | 
